Here are results for 13 compounds from patent US10660876B2, “Amino compounds for treatment of medical disorders” (Achillion Pharmaceuticals, Inc., priority 2015, dated 2020).

Where only a bound is given, the exact number is not on record here.

Sequence of Human Factor D (P00746 26-253): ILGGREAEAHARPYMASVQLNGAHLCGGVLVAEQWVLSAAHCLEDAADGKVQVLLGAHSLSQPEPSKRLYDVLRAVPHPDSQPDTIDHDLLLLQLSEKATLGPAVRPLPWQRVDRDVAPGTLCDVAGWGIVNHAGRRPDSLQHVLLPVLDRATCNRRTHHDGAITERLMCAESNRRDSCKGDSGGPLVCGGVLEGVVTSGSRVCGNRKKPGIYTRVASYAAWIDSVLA

The target of this experiment is Human Factor D (Homo sapiens (Human), UniProt P00746). Put plainly: Human Factor D Assay. Conditions: Table 3; Factor D purified from human serum, 80 nM, substrate Z-L-Lys-SBzl; read-out: IC50 (Stars). It counts as biochemical. The method in brief:
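Serum-purified human Factor D (80 nM final) preincubated with compound for 5 min at room temperature in 50 mM Tris, 1 M NaCl, pH 7.5. Z-L-Lys-SBzl and DTNB added at 100 μM each; A405 read every 30 s for 30 min. IC50 by nonlinear regression of reaction rates.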
Usually IC50 stands for the concentration that gives 50% inhibition. Turning to `CC(=O)c1cn(CC(=O)N2C[C@H](F)C[C@H]2C(=O)NCCc2ccccc2)c2ccc(Nc3cccnc3)cc12` [Compound 148, (2S,4R)-1-(2-(3-acetyl-5-(pyridin-3-ylamino)-1H-indol-1-yl)acetyl)-4-fluoro-N-phenethylpyrrolidin-2-carboxamide], the IC50 was under 1000 nM. As for `CC(=O)c1cn(CC(=O)N2C[C@H](F)C[C@H]2C(=O)NCCCc2ccccc2)c2ccc(Nc3cccnc3)cc12` [Compound 150, (2S,4R)-1-(2-(3-acetyl-5-(pyridin-3-ylamino)-1H-indol-1-yl)acetyl)-4-fluoro-N-(3-phenylpropyl) pyrrolidine-2-carboxamide], the IC50 was under 1000 nM. Then `CC(=O)c1cn(CC(=O)N2C[C@H](F)C[C@H]2C(=O)NCCCCc2ccccc2)c2ccc(Nc3cccnc3)cc12` [Compound 152, (2S,4R)-1-(2-(3-acetyl-5-(pyridin-3-ylamino)-1H-indol-1-yl)acetyl)-4-fluoro-N-(4-phenylbutyl) pyrrolidine-2-carboxamide], with under 1000 nM.

On to `CC(=O)c1cn(CC(=O)N2C[C@H](F)C[C@H]2C(=O)NCc2ccccc2)c2ccc(Nc3cncnc3)cc12` [Compound 153, (2S,4R)-1-(2-(3-acetyl-5-(pyrimidin-5-ylamino)-1H-indol-1-yl)acetyl)-N-benzyl-4-fluoropyrrolidine-2-carboxamide], for which the IC50 was under 1000 nM. Then `CC(=O)c1cn(CC(=O)N2C[C@H](F)C[C@H]2C(=O)NCCc2ccccc2)c2ccc(Nc3cncnc3)cc12` [Compound 154, (2S,4R)-1-(2-(3-acetyl-5-(pyrimidin-5-ylamino)-1H-indol-1-yl)acetyl)-4-fluoro-N-phenethylpyrrolidin-2-carboxamide], with under 1000 nM; and `CC(=O)c1cn(CC(=O)N2C[C@H](F)C[C@H]2C(=O)NCCCc2ccccc2)c2ccc(Nc3cncnc3)cc12` [Compound 155, (2S,4R)-1-(2-(3-acetyl-5-(pyrimidin-5-ylamino)-1H-indol-1-yl)acetyl)-4-fluoro-N-(3-phenylpropyl) pyrrolidine-2-carboxamide], with under 1000 nM. Then `CC(=O)c1cn(CC(=O)N2C[C@H](F)C[C@H]2C(=O)NCCCCc2ccccc2)c2ccc(Nc3cncnc3)cc12` [Compound 156, (2S,4R)-1-(2-(3-acetyl-5-(pyrimidin-5-ylamino)-1H-indol-1-yl)acetyl)-4-fluoro-N-(4-phenylbutyl) pyrrolidine-2-carboxamide], with under 1000 nM. With `CC(=O)c1cn(CC(=O)N2CC[C@H]2C(=O)Nc2cccc(C)n2)c2ccc(Nc3cccnc3)cc12` [Compound 159, (S)-1-(2-(3-acetyl-5-(pyridin-3-ylamino)-1H-indol-1-yl)acetyl)-N-(6-methylpyridin-2-yl)azetidine-2-carboxamide], the half-maximal inhibitory concentration (IC50) was over 10000 nM. Then `CC(=O)c1cn(CC(=O)N2CC[C@H]2C(=O)Nc2cccc(C)n2)c2ccc(Nc3cncnc3)cc12` [Compound 160, (S)-1-(2-(3-acetyl-5-(pyrimidin-5-ylamino)-1H-indol-1-yl)acetyl)-N-(6-methylpyridin-2-yl)azetidine-2-carboxamide], with over 10000 nM; and `Cc1cccc(NC(=O)[C@@H]2[C@@H]3CCC(C3)N2C(=O)Cn2cc(C(N)=O)c3cc(Nc4ccc(Cl)nn4)ccc32)n1` [Compound 162, 5-((6-chloropyridazin-3-yl)amino)-1-(2-((3S,4R)-3-((6-methylpyridin-2-yl)carbamoyl)-2-azabicyclo[2.2.1]heptan-2-yl)-2-oxoethyl)-1H-indole-3-carboxamide], with under 1000 nM. Then `CC(=O)c1nn(CC(=O)N2C[C@H](F)C[C@H]2C(=O)Nc2cccc(Br)n2)c2ccc(Nc3cnc(C)nc3)cc12` [Compound 163, (2S,4R)-1-(2-(3-acetyl-5-((2-methylpyrimidin-5-yl)amino)-1H-indazol-1-yl)acetyl)-N-(6-bromopyridin-2-yl)-4-fluoropyrrolidine-2-carboxamide], with under 1000 nM; and `CC(=O)c1nn(CC(=O)N2C[C@H](F)C[C@H]2C(=O)Nc2cccc(Br)n2)c2ccc(Nc3cncc(F)c3)cc12` [Compound 164, (2S,4R)-1-(2-(3-acetyl-5-((5-yl)amino)-1H-indazol-1-yl)acetyl)-N-(6-bromopyridin-2-yl)-4-fluoropyrrolidine-2-carboxamide], with under 1000 nM; and `CC(=O)c1nn(CC(=O)N2[C@H](C(=O)Nc3nc(Br)ccc3C)C[C@@]3(C)C[C@@H]23)c2ccc(Nc3cncc(F)c3)cc12` [Compound 165, (1R,3S,5R)-2-(2-(3-acetyl-5-((5-fluoropyridin-3-yl)amino)-1H-indazol-1-yl)acetyl)-N-(6-bromo-3-methylpyridin-2-yl)-5-methyl-2-azabicyclo[3.1.0] hexane-3-carboxamide], with under 1000 nM.
